Source: publication PMC9019100, “Development of NanoLuc-targeting protein degraders and a universal reporter system to benchmark tag-targeted degradation platforms” (Nature Communications, 2022)
Where “and” joins values, the source holds several entries; their conditions need not be identical. Identical values can stand only once. Like-named read-outs stand apart in the source and are kept apart here.

Columns and labels:
[1] = target: T1, Halo-EGFP-NanoLuc-FKBP^F36V (H-E-N-F) fusion protein (UniProt P0A3G2+P62942+Q9GV45, A155T/A167V/A172T/A224E/A31E/A60N/A81I/C128F/C176G/D78G/E160K/E257K/F37V/F95D/H272N/I117V/K175M/K195N/K70R/L47V/L54V/L88M/L99Q/M102K/N193R/N227D/P142E/P291S/Q151K/Q38R/Q45L/S2A/S58T/T264A/V71I/Y165I/Y273L/Y87F); type: cell-based; design: expressed in transfected cells; host or cells: immortalized mouse dermal fibroblasts (iMDFs), ubiquitin promoter, constitutive; details: 500 nM
Target sequence in this assay (P0A3G2 other isoform, or with tags, fused parts or gaps with the stated changes): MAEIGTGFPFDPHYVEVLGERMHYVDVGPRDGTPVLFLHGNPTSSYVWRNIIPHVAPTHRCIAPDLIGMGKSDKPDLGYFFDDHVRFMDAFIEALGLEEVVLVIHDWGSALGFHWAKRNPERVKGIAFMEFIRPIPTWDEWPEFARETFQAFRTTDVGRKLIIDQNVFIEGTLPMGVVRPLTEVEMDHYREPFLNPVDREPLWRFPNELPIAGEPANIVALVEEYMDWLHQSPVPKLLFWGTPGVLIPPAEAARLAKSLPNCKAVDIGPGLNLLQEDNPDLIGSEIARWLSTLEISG
Target sequence in this assay (Q9GV45 other isoform, or with tags, fused parts or gaps with the stated changes): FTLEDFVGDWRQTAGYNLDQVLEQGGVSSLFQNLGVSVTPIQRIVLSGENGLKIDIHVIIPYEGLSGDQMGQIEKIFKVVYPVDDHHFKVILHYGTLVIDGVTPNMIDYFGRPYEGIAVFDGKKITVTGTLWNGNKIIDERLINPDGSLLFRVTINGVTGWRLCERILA
Target sequence in this assay (P62942 whole entry F37V, the tested form may be a part): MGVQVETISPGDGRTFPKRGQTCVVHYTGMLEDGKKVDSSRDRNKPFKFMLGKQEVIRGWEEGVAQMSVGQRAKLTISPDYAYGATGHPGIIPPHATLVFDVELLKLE

[2] = target: T2, Fibrillarin-NanoLuc (Oplophorus gracilirostris, UniProt Q9GV45, A31E/A60N/A81I/F95D/I117V/K70R/L54V/L99Q/M102K/N193R/P142E/Q151K/Q38R/Q45L/V71I/Y165I); assay: cell-based; details: HEK-293T; 500 nM, 10 h; read-out: Dmax (densitometry)
T2 construct: endogenous in cells; host or cells: 293T, CRISPR/PITCh knock-in at the FBL locus
T2 sequence (Q9GV45 other isoform, or with tags, fused parts or gaps with the stated changes): as the sequence (Q9GV45 other isoform, or with tags, fused parts or gaps with the stated changes) above

[3] = target: T1, Halo-EGFP-NanoLuc-FKBP^F36V (H-E-N-F) fusion protein; type: cell-based; details: replicate wells; for Blank corrected Raw Data (470-80): +dox, PROTAC 500nM
Target sequence in this assay (Q9GV45 other isoform, or with tags, fused parts or gaps with the stated changes): as above
Target sequence in this assay (P0A3G2 other isoform, or with tags, fused parts or gaps with the stated changes): as the sequence (P0A3G2 other isoform, or with tags, fused parts or gaps with the stated changes) above
Target sequence in this assay (P62942 whole entry F37V, the tested form may be a part): as the sequence (P62942 whole entry F37V, the tested form may be a part) above

[4] = test system: MLKL^−/−CASP8^−/− HT29 cells expressing MLKL-NLuc and caspase-8-FKBP^F36V; details: TNF+SM
[5] = target: T3, MLKL-NLuc (Oplophorus gracilirostris, UniProt Q9GV45, A31E/A60N/A81I/F95D/I117V/K70R/L54V/L99Q/M102K/N193R/P142E/Q151K/Q38R/Q45L/V71I/Y165I); type: cell-based; details: 5 h
T3 construct: expressed in transfected cells; host or cells: MLKL-/- HT29 (A12); MLKL-/-CASP8-/- HT29 (A24); doxycycline-inducible
T3 sequence (Q9GV45 other isoform, or with tags, fused parts or gaps with the stated changes): as the sequence (Q9GV45 other isoform, or with tags, fused parts or gaps with the stated changes) above

[6] = test system: MLKL^−/− HT29 cells expressing untagged MLKL; type: cell-based; details: MLKL-/- + MLKL, independent experiments
Protocol: Cell death was assessed by flow cytometric analysis of PI exclusion. […] Cell death was assessed by flow cytometric analysis of PI exclusion. […] Cell death was assessed by flow cytometric analysis of PI exclusion. e N = 4, f N = 3 independent experiments (symbols), EB represent mean ± SD. g Western from MLKL^−/−CASP8^−/− HT29 cells stably expressing the doxycycline-inducible C-terminal fusion protein, MLKL-NanoLuc (MLKL-NLuc) and constitutively expressing the C-terminal fusion protein caspase-8-FKBP^F36V. […] Cell death was assessed using an IncuCyte and Cytotox-Red uptake. N = 3 independent experiments, one representative experiment shown, EB represent mean ± SD.

[7] = test system: wild-type HT29 cells; assay: Necroptosis assay (PI exclusion, flow cytometry), wild-type HT29 cells, TNF+SM+IDN; type: cell-based, human; details: Unt (no death stimulus); sheet S5F
Protocol: To simulate necroptosis, cells were seeded into 96-well plates ±40 ng/mL doxycycline, to induce construct expression, and treated with 100 ng/mL FLAG-TNF (recombinant human, in-house), 500 nM compound A Smac mimetic (kindly gifted by TetraLogics Pharmaceuticals) and 5 μM IDN-6556 (Cayman) or 10 uM Z-VAD-fmk (Selleckchem) overnight (16–24 h). Degrader compounds or a DMSO vehicle control were added for 5 h, as stated in the Fig. legends. Cells were detached using Trypsin-EDTA (Merck) and resuspended in cell supernatants containing 10 μg/mL propidium iodide (PI). PI exclusion analysis was performed using an LSR II flow cytometer (Becton Dickinson, NJ) with 10,000 single-cell events per sample. Flow cytometry data were analysed using WEASEL version 2.7 software (Frank Battye).
Supplementary Figure 5. […]
NC4. Data are representative of N = 3 independent experiments. f-h. HT29 cells were stimulated with DMSO (control) or 500 nM of degrader for 5 hours before the addition of TNF (100 ng/mL) + Smac mimetic (compound A; 500 nM-1 µM) + caspase inhibitor; Emricasan (IDN) (5 µM), for 24 hours. Cell death was assessed by flow cytometric analysis of PI exclusion. N = 3 replicates (symbols) is shown, EB; mean ± SD. Data are representative of N = 3 independent experiments. i. Representative flow cytometry gating strategy. Source data are provided as a Source Data file.

CCc1cccc(N(CC)C(=O)Cn2c(C(=O)NC3CCC(C(=O)NCCCCCCCC(=O)NCCCCNc4cccc5c4C(=O)N(C4CCC(=O)NC4=O)C5=O)CC3)cc3ccccc32)c1 (stereo not drawn) [NC4]
time up to which degradation was seen, degrader left in the medium ([1]; 5, 24 or 48 h): up to 24 h | time up to which degradation was maintained, degrader removed at 5 h ([1]; 24 or 48 h after removal): not maintained | Dmax at 0.5 µM [2]: ~52.9% | NanoLuc luminescence, Blank corrected (470-80) ([3]; 62.5nM, 2h): 4980 and 5006 and 4972 | NanoLuc luminescence, Blank corrected (470-80) ([3]; 62.5nM, 4h): 5208 and 3005 and 4773 and 4875 | NanoLuc luminescence, Blank corrected (470-80) ([3]; 62.5nM, 6h): 2838 and 2892 and 3957 | NanoLuc luminescence, Blank corrected (470-80) ([3]; 62.5nM, 8h): 2020 and 2221 and 2420 | NanoLuc luminescence, Blank corrected (470-80) ([3]; 62.5nM, 10h): 1449 and 1207 and 1837 | NanoLuc luminescence, Blank corrected (470-80) ([3]; 250nM, 2h): 1535 and 1072 and 1399 | NanoLuc luminescence, Blank corrected (470-80) ([3]; 250nM, 4h): 1441 and 855 and 1118 | NanoLuc luminescence, Blank corrected (470-80) ([3]; 250nM, 6h): 752 and 593 and 657 and 1043 | NanoLuc luminescence, Blank corrected (470-80) ([3]; 250nM, 8h): 745 and 600 and 575 | NanoLuc luminescence, Blank corrected (470-80) ([3]; 250nM, 10h): 292 and 341 and 527 | NanoLuc luminescence, Blank corrected (470-80) ([3]; 500nM, 2h): 894 and 649 and 1055 and 784 | NanoLuc luminescence, Blank corrected (470-80) ([3]; 500nM, 4h): 690 and 518 and 723 | NanoLuc luminescence, Blank corrected (470-80) ([3]; 500nM, 6h): 437 and 546 and 398 and 460 | NanoLuc luminescence, Blank corrected (470-80) ([3]; 500nM, 8h): 261 and 295 and 351 | NanoLuc luminescence, Blank corrected (470-80) ([3]; 500nM, 10h): 255 and 239 and 173 | Blank corrected Raw Data (470-80) ([3]; DMSO (control) co-treatment): 1248 and 1289 and 1195 and 929 | Blank corrected Raw Data (470-80) ([3]; co-treatment with MG132 (10uM)): 3006 and 3126 and 2730 and 2907 | Cytotox-Red uptake (cell death), IncuCyte ([4]; elapsed 0 h): 176 | Cytotox-Red uptake (cell death), IncuCyte ([4]; elapsed 0.5 h): 196.812 | Cytotox-Red uptake (cell death), IncuCyte ([4]; elapsed 1 h): 269.75 | Cytotox-Red uptake (cell death), IncuCyte ([4]; elapsed 2 h): 726.062 | Cytotox-Red uptake (cell death), IncuCyte ([4]; elapsed 3 h): 1441.19 | Cytotox-Red uptake (cell death), IncuCyte ([4]; elapsed 4 h): 2153.69 | Cytotox-Red uptake (cell death), IncuCyte ([4]; elapsed 5 h): 2734 | Cytotox-Red uptake (cell death), IncuCyte ([4]; elapsed 6 h): 3193.62 | Cytotox-Red uptake (cell death), IncuCyte ([4]; elapsed 6.5 h): 3375.81 | Cytotox-Red uptake (cell death), IncuCyte ([4]; elapsed 7 h): 3569.31 | Cytotox-Red uptake (cell death), IncuCyte ([4]; elapsed 7.5 h): 3696.25 | Cytotox-Red uptake (cell death), IncuCyte ([4]; elapsed 8 h): 3846.56 | Cytotox-Red uptake (cell death), IncuCyte ([4]; elapsed 9 h): 4053 | Cytotox-Red uptake (cell death), IncuCyte ([4]; elapsed 9.5 h): 4125.31 | Cytotox-Red uptake (cell death), IncuCyte ([4]; elapsed 10 h): 4221.25 | Cytotox-Red uptake (cell death), IncuCyte ([4]; elapsed 10.5 h): 4287.44 | Cytotox-Red uptake (cell death), IncuCyte ([4]; elapsed 11 h): 4360 | Cytotox-Red uptake (cell death), IncuCyte ([4]; elapsed 12 h): 4474.25 | Cytotox-Red uptake (cell death), IncuCyte ([4]; elapsed 13 h): 4557.19 | Cytotox-Red uptake (cell death), IncuCyte ([4]; elapsed 13.5 h): 4775.06 | Cytotox-Red uptake (cell death), IncuCyte ([4]; elapsed 14 h): 4760.06 | Cytotox-Red uptake (cell death), IncuCyte ([4]; elapsed 14.5 h): 4770 | Cytotox-Red uptake (cell death), IncuCyte ([4]; elapsed 15 h): 4767.69 | Cytotox-Red uptake (cell death), IncuCyte ([4]; elapsed 16 h): 4884.75 | Cytotox-Red uptake (cell death), IncuCyte ([4]; elapsed 17 h): 4901.56 | Cytotox-Red uptake (cell death), IncuCyte ([4]; elapsed 18 h): 4950.62 | Cytotox-Red uptake (cell death), IncuCyte ([4]; elapsed 19 h): 4959.75 | Cytotox-Red uptake (cell death), IncuCyte ([4]; elapsed 19.5 h): 4920.31 | depletion of MLKL-NLuc [5]: could be depleted | Live cells (%PI negative) after TNF+911+zVAD ([6]; 3.9nM): 6.4 and 6.9 and 5.3 | Live cells (%PI negative) after TNF+911+zVAD ([6]; 7.8nM): 6.6 and 6 and 6.3 | Live cells (%PI negative) after TNF+911+zVAD ([6]; 31.25nM): 6.5 and 6 and 7.1 | Live cells (%PI negative) after TNF+911+zVAD ([6]; 62.5nM): 6 and 5.5 and 7.5 | Live cells (%PI negative) after TNF+911+zVAD ([6]; 250nM): 4.9 and 6.4 and 6.1 | Live cells (%PI negative) after TNF+911+zVAD ([6]; 500nM): 4 and 4.7 and 6.1 | Live cells (%PI negative) after TNF+911+zVAD ([6]; 1000nM): 5.9 and 5.2 and 6.1 | viable cells (PI exclusion) [7]: 70.2 and 66.8 and 70.5
